Reference: patent US4840785A, “Mammal intestinal hormone precursor and its use” (priority 1985, dated 1989)
Values joined by “and” are separate entries in the source; they are usually repeats but may differ in a detail not shown here. Equal entries are not always repeated. No end group written: not given here.

Columns and labels:
[1] = system: pancreas of the anesthetized cat; assay: secretin bioassay: stimulation of secretion of alkali in the pancreatic juice in the anesthetized cat; type: in vivo
Description: The biological activity was measured by the ability to stimulate the secretion of alkali in the pancreatic juice in the anesthetized cat (Mutt, v. and Soderberg, U. On the assay of secretin. Ark.Kem. 15, 63-68, 1959). The sample was compared to a secretin standard with an established activity of 3500 units per mg. […] Proteolytic fragmentation

[2] = system: pancreas of the anesthetized cat; conditions: standard used for comparison; cited from earlier work

secretin (HSDGTFTSELSRLRDSARLQRLLQGLV-NH2; UniProt P63298 33-59, looked up) [porcine secretin, intestinal hormone peptide composed of 27 amino acid residues, C-terminal valine amidated]
ALKALI SECRETED ([1]; Cat. 1, dose 47 pmole): 130 μequiv. and 116 μequiv. | ALKALI SECRETED per dose ([1]; Cat. 1, dose 47 pmole): 2.7 μequiv.pmole and 2.5 μequiv.pmole | ALKALI SECRETED ([1]; Cat. 1, dose 94 pmole): 182 μequiv. and 170 μequiv. | ALKALI SECRETED per dose ([1]; Cat. 1, dose 94 pmole): 1.9 μequiv.pmole and 1.8 μequiv.pmole | ALKALI SECRETED ([1]; Cat. 2, dose 47 pmole): 110 μequiv. | ALKALI SECRETED per dose ([1]; Cat. 2, dose 47 pmole): 2.3 μequiv.pmole | ALKALI SECRETED ([1]; Cat. 2, dose 94 pmole): 150 μequiv. | ALKALI SECRETED per dose ([1]; Cat. 2, dose 94 pmole): 1.6 μequiv.pmole | established activity of secretin standard [2]: 3500 units per mg
